Assay results as given in US20250002507A1, “7,8-DIHYDRO-5H-1,6-NAPHTHYRIDINE DERIVATIVES AS POSITIVE ALLOSTERIC MODULATORS OF THE MUSCARINIC ACETYLCHOLINE RECEPTOR M4 FOR TREATING NEUROLOGICAL AND PSYCHIATRIC DISORDERS” (Vanderbilt University, priority 2021, published 2025).
pEC50: −log10 of the molar value. Read-outs that look alike come from different tables or passages of the source.

Biological target: T1, Human M4 (Homo sapiens, UniProt P08173)
T1 construct: expressed in transfected cells
T1 sequence (P08173 1-479): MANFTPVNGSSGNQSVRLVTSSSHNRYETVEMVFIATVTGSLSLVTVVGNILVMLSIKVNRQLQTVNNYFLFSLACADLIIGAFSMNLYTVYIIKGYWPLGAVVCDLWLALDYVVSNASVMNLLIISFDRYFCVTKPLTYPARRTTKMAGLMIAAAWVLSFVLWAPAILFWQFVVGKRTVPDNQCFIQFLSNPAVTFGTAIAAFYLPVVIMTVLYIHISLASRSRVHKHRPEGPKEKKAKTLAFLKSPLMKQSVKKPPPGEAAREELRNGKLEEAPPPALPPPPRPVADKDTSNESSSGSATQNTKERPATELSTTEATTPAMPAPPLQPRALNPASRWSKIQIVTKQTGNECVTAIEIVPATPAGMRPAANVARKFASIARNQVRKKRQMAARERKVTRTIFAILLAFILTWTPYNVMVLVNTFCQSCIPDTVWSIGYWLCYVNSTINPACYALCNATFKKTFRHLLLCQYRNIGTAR
Test: mAChR M4 cell-based functional assay (calcium flux, potentiation of EC20 acetylcholine response), hM4-Gqi5 CHO-K1 cells
Conditions: for Emax at 30 µM: CHO-K1, Human M4, % ACh maximum at 30 μM, read-out: Emax (% ACh maximum at 30 μM)
Outline: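 CHO-K1 cells stably expressing human M4 with chimeric Gqi5, loaded with Fluo-4 AM 50 min at 37 °C; calcium flux read by FDSS. 11-point 1:3 compound curves added, then EC20 acetylcholine at 144 s; potentiation of the EC20 response fitted by four-parameter logistic to give EC50 and Emax.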

[1] = Table 3, potentiation of EC20 acetylcholine response, calcium flux, CHO-K1 cells, read-out: Human M4 EC50

Cc1cnc2c(c1)CN(c1nn3cc(C(=O)N4CCN(C)CC4)nc3cc1C)CC2 [Compound 169, (7-methyl-6-(3-methyl-7,8-dihydro-1,6-naphthyridin-6(5H)-yl)imidazo[1,2-b]pyridazin-2-yl)(4-methylpiperazin-1-yl)methanone]
Emax at 30 µM (Table 3): 111%
pEC50 [1]: 5.93

Cc1cnc2c(c1)CN(c1nn3cc(C(=O)N4CCCCC4)nc3cc1C)CC2 [Compound 170, (7-methyl-6-(3-methyl-7,8-dihydro-1,6-naphthyridin-6(5H)-yl)imidazo[1,2-b]pyridazin-2-yl)(piperidin-1-yl)methanone]
Emax at 30 µM (Table 3): 105%
pEC50 [1]: 6.03

Cc1cnc2c(c1)CN(c1nn3cc(C(=O)N4CCCC4)nc3cc1C)CC2 [Compound 171, [7-Methyl-6-(3-methyl-7,8-dihydro-5H-1,6-naphthyridin-6-yl)imidazo[1,2-b]pyridazin-2-yl]-pyrrolidin-1-yl-methanone]
Emax at 30 µM (Table 3): 107%
pEC50 [1]: 5.98

Cc1c(N2CCc3ncc(-c4cccnc4C(F)(F)F)cc3C2)nn2cnnc2c1C [Compound 172, 6-(7,8-dimethyl-[1,2,4]triazolo[4,3-b]pyridazin-6-yl)-3-(2-(trifluoromethyl)pyridin-3-yl)-5,6,7,8-tetrahydro-1,6-naphthyridine]
Emax at 30 µM (Table 3): 73%
pEC50 [1]: 5.45

COc1ncc(-c2cnc3c(c2)CN(c2nn4cnnc4c(C)c2C)CC3)cc1Cl [Compound 173, 3-(5-chloro-6-methoxypyridin-3-yl)-6-(7,8-dimethyl-[1,2,4]triazolo[4,3-b]pyridazin-6-yl)-5,6,7,8-tetrahydro-1,6-naphthyridine]
Emax at 30 µM (Table 3): 80%
pEC50 [1]: 6.03

COc1nc(Cl)ccc1-c1cnc2c(c1)CN(c1nn3cnnc3c(C)c1C)CC2 [Compound 174, 3-(6-chloro-2-methoxypyridin-3-yl)-6-(7,8-dimethyl-[1,2,4]triazolo[4,3-b]pyridazin-6-yl)-5,6,7,8-tetrahydro-1,6-naphthyridine]
Emax at 30 µM (Table 3): 85%
pEC50 [1]: 5.97

CCc1ccncc1-c1cnc2c(c1)CN(c1nn3cnnc3c(C)c1C)CC2 [Compound 175, 6-(7,8-dimethyl-[1,2,4]triazolo[4,3-b]pyridazin-6-yl)-3-(4-ethylpyridin-3-yl)-5,6,7,8-tetrahydro-1,6-naphthyridine]
Emax at 30 µM (Table 3): 81%
pEC50 [1]: 6.81

COc1ncc(-c2cnc3c(c2)CN(c2nn4cnnc4c(C)c2C)CC3)cc1F [Compound 176, 6-(7,8-dimethyl-[1,2,4]triazolo[4,3-b]pyridazin-6-yl)-3-(5-fluoro-6-methoxypyridin-3-yl)-5,6,7,8-tetrahydro-1,6-naphthyridine]
pEC50: 6.23
Emax (CHO-K1, read-out: Emax (% ACh maximum at 30 μM)): 89%

Cc1c(N2CCc3ncc(-c4cnc(Cl)c(F)c4)cc3C2)nn2cnnc2c1C [Compound 177, 3-(6-chloro-5-fluoropyridin-3-yl)-6-(7,8-dimethyl-[1,2,4]triazolo[4,3-b]pyridazin-6-yl)-5,6,7,8-tetrahydro-1,6-naphthyridine]
Emax at 30 µM (Table 3): 85%
pEC50 [1]: 6.13

COc1cnc(Cl)c(-c2cnc3c(c2)CN(c2nn4cnnc4c(C)c2C)CC3)c1 [Compound 178, 3-(2-chloro-5-methoxypyridin-3-yl)-6-(7,8-dimethyl-[1,2,4]triazolo[4,3-b]pyridazin-6-yl)-5,6,7,8-tetrahydro-1,6-naphthyridine]
Emax at 30 µM (Table 3): 85%
pEC50 [1]: 6.24

COc1ncc(F)cc1-c1cnc2c(c1)CN(c1nn3cnnc3c(C)c1C)CC2 [Compound 179, 6-(7,8-dimethyl-[1,2,4]triazolo[4,3-b]pyridazin-6-yl)-3-(5-fluoro-2-methoxypyridin-3-yl)-5,6,7,8-tetrahydro-1,6-naphthyridine]
Emax at 30 µM (Table 3): 84%
pEC50 [1]: 6.04

Cc1c(N2CCc3ncc(-c4ccc(N(C)C)nc4)cc3C2)nn2cnnc2c1C [Compound 180, 5-(6-(7,8-dimethyl-[1,2,4]triazolo[4,3-b]pyridazin-6-yl)-5,6,7,8-tetrahydro-1,6-naphthyridin-3-yl)-N,N-dimethylpyridin-2-amine]
Emax at 30 µM (Table 3): 74%
pEC50 [1]: 6.55

Cc1c(N2CCc3ncc(-c4cc(F)cnc4Cl)cc3C2)nn2cnnc2c1C [Compound 181, 3-(2-chloro-5-fluoropyridin-3-yl)-6-(7,8-dimethyl-[1,2,4]triazolo[4,3-b]pyridazin-6-yl)-5,6,7,8-tetrahydro-1,6-naphthyridine]
Emax at 30 µM (Table 3): 95%
pEC50 [1]: 6.27

Cc1c(N2CCc3ncc(-c4cccnc4OC(C)C)cc3C2)nn2cnnc2c1C [Compound 182, 6-(7,8-dimethyl-[1,2,4]triazolo[4,3-b]pyridazin-6-yl)-3-(2-isopropoxypyridin-3-yl)-5,6,7,8-tetrahydro-1,6-naphthyridine]
Emax at 30 µM (Table 3): 42%
pEC50 [1]: 5.96

Cc1c(N2CCc3ncc(-c4cccnc4F)cc3C2)nn2cnnc2c1C [Compound 183, 6-(7,8-dimethyl-[1,2,4]triazolo[4,3-b]pyridazin-6-yl)-3-(2-fluoropyridin-3-yl)-5,6,7,8-tetrahydro-1,6-naphthyridine]
Emax at 30 µM (Table 3): 93%
pEC50 [1]: 6.16

CC(=O)c1cnc2c(c1)CN(c1nn3cnnc3c(C)c1C)CC2 [Compound 184, 1-(6-(7,8-dimethyl-[1,2,4]triazolo[4,3-b]pyridazin-6-yl)-5,6,7,8-tetrahydro-1,6-naphthyridin-3-yl)ethan-1-one]
Emax at 30 µM (Table 3): 96%
pEC50 [1]: 6.15

Cc1c(N2CCc3ncc(-c4ccc(N5CCCCC5)nc4)cc3C2)nn2cnnc2c1C [Compound 185, 6-(7,8-dimethyl-[1,2,4]triazolo[4,3-b]pyridazin-6-yl)-3-(6-(piperidin-1-yl)pyridin-3-yl)-5,6,7,8-tetrahydro-1,6-naphthyridine]
Emax at 30 µM (Table 3): 86%
pEC50 [1]: 6.48

Cc1c(N2CCc3ncc(-c4ccc(N5CCOCC5)nc4)cc3C2)nn2cnnc2c1C [Compound 186, 4-(5-(6-(7,8-dimethyl-[1,2,4]triazolo[4,3-b]pyridazin-6-yl)-5,6,7,8-tetrahydro-1,6-naphthyridin-3-yl)pyridin-2-yl)morpholine]
Emax at 30 µM (Table 3): 100%
pEC50 [1]: 6.85

Cc1c(N2CCc3ncc(-c4ccc(N5CCN(C)CC5)nc4)cc3C2)nn2cnnc2c1C [Compound 187, 6-(7,8-dimethyl-[1,2,4]triazolo[4,3-b]pyridazin-6-yl)-3-(6-(4-methylpiperazin-1-yl)pyridin-3-yl)-5,6,7,8-tetrahydro-1,6-naphthyridine]
Emax at 30 µM (Table 3): 104%
pEC50 [1]: 7.20

Cc1cc2nccn2nc1N1CCc2ncc(C(F)(F)F)cc2C1 [Compound 188, 6-(7-methylimidazo[1,2-b]pyridazin-6-yl)-3-(trifluoromethyl)-5,6,7,8-tetrahydro-1,6-naphthyridine]
Emax at 30 µM (Table 3): 69%
pEC50 [1]: 6.28

Cc1c(N2CCc3ncc(C(F)F)cc3C2)nn2cnnc2c1C [Compound 189, 3-(difluoromethyl)-6-(7,8-dimethyl-[1,2,4]triazolo[4,3-b]pyridazin-6-yl)-5,6,7,8-tetrahydro-1,6-naphthyridine]
Emax at 30 µM (Table 3): 103%
pEC50 [1]: 7.05

Cc1cc2nncn2nc1N1CCc2ncc(Nc3ccnn3C)cc2C1 [Compound 190, N-(1-methyl-1H-pyrazol-5-yl)-6-(7-methyl-[1,2,4]triazolo[4,3-b]pyridazin-6-yl)-5,6,7,8-tetrahydro-1,6-naphthyridin-3-amine]
Emax at 30 µM (Table 3): 102%
pEC50 [1]: 6.63

Cc1c(N2CCc3ncc(-c4ccc(-n5cccn5)nc4)cc3C2)nn2cnnc2c1C [Compound 191, 3-(6-(1H-pyrazol-1-yl)pyridin-3-yl)-6-(7,8-dimethyl-[1,2,4]triazolo[4,3-b]pyridazin-6-yl)-5,6,7,8-tetrahydro-1,6-naphthyridine]
Emax at 30 µM (Table 3): 66%
pEC50 [1]: 6.47

Cc1c(N2CCc3ncc(-c4ccc(-n5ccnc5)nc4)cc3C2)nn2cnnc2c1C [Compound 192, 3-(6-(1H-imidazol-1-yl)pyridin-3-yl)-6-(7,8-dimethyl-[1,2,4]triazolo[4,3-b]pyridazin-6-yl)-5,6,7,8-tetrahydro-1,6-naphthyridine]
Emax at 30 µM (Table 3): 72%
pEC50 [1]: 6.55

Cc1cc2nncn2nc1N1CCc2ncc(-c3ccns3)cc2C1 [Compound 193, 5-(6-(7-methyl-[1,2,4]triazolo[4,3-b]pyridazin-6-yl)-5,6,7,8-tetrahydro-1,6-naphthyridin-3-yl)isothiazole]
Emax at 30 µM (Table 3): 93%
pEC50 [1]: 7.03

Cc1ncc(-c2cnc3c(c2)CN(c2nn4cnnc4cc2C)CC3)s1 [Compound 194, 2-methyl-5-(6-(7-methyl-[1,2,4]triazolo[4,3-b]pyridazin-6-yl)-5,6,7,8-tetrahydro-1,6-naphthyridin-3-yl)thiazole]
Emax at 30 µM (Table 3): 88%
pEC50 [1]: 6.53

Cc1nc(C)c(-c2cnc3c(c2)CN(c2nn4cnnc4cc2C)CC3)s1 [Compound 195, 2,4-dimethyl-5-(6-(7-methyl-[1,2,4]triazolo[4,3-b]pyridazin-6-yl)-5,6,7,8-tetrahydro-1,6-naphthyridin-3-yl)thiazole]
Emax at 30 µM (Table 3): 89%
pEC50 [1]: 6.70
